Assay results reported in US20060177474A1, “Agricultural and horticultural poison bait preparation” (priority 2005, published 2006).

melting point [°C] | SMILES
153 to 155 | Cc1cc(C(F)(C(F)(F)F)C(F)(F)F)ccc1NC(=O)c1cccc(Br)c1C(=O)NC(C)CS(C)(=O)=O (stereo not shown)
82 | Cc1cc(C(F)(C(F)(F)F)C(F)(F)F)ccc1N(C(=O)c1c(I)cccc1C(N)=O)C(C)CS(C)(=O)=O (stereo not shown) [compound 27, 3-iodo-N′-{2-methyl-4-[1,2,2,2-tetrafluoro-1-(trifluoromethyl)ethyl]phenyl}-N^2-(1-methyl-2-methylsulfonylethyl)phthalamide]
134 | Cc1cc(C(F)(C(F)(F)F)C(F)(F)F)ccc1NC(=O)c1cccc(I)c1C(=O)NC(C)C[S+](C)[O-] (stereo not shown) [compound 28, 3-iodo-N^1-{2-methyl-4-[1,2,2,2-tetrafluoro-1-(trifluoromethyl)ethyl]phenyl}-N^2-(1-methyl-2-methylsulfinylethyl)phthalamide]
155 to 156 | Cc1cc(C(F)(C(F)(F)F)C(F)(F)F)ccc1N(C(=O)c1cccc(Cl)c1C(N)=O)C(C)CS(C)(=O)=O (stereo not shown) [compound 37, 3-chloro-N^1-{2-methyl-4-[1,2,2,2-tetrafluoro-1-(trifluoromethyl)ethyl]phenyl}-N^1-(1-methyl-2-methylsulfonylethyl)phthalamide]
